In US20100184770A1, “COMPOUNDS” (Glaxo Group Limited, priority 2006, published 2010):
Counter-ions that a name gives are not always drawn.

biological target: T1, human H1 receptor (Homo sapiens, UniProt P35367); experiment: Histamine H1 functional antagonist assay: determination of antagonist duration (washout, FLIPR); assay type: cell-based; conditions: at one or more time points after washout
T1 construct: expressed in transfected cells
Method: 1. Generation of Histamine H1 Cell Line The human H1 receptor is cloned using known procedures described in the literature [Biochem. Biophys. Res. Commun., 201(2):894 (1994)]. Chinese hamster ovary (CHO) cells stably expressing the human H1 receptor are generated according to known procedures described in the literature [Br. J. Pharmacol., 117(6):1071 (1996)].
To determine the antagonist duration, cells are cultured overnight in non-coated black-walled clear bottom 96-well tissue culture plates, are washed with PBS and are incubated with a concentration of antagonist chosen to give an approximate DR in the range 30-300. Following the 30 min antagonist incubation period, the cells are washed two or three times with 200 μl of PBS and then 100 μl Tyrodes buffer is added to each well to initiate antagonist dissociation. Following incubation for predetermined times, typically 30-270 min at 37° C., the cells are then washed again with 200 μl PBS and are incubated with 100 Tyrodes buffer containing Brilliant Black, probenecid and Fluo-4 for 45 min at 37° C., as described above. After this period, the cells are challenged with histamine in the FLIPR™ as described above. The dose ratio at each time point is used to determine the fractional H1 receptor occupancy by the following equation: fractional receptor occupancy=(DR-1)/DR. The decrease in receptor occupancy over time approximates to a straight line and is analysed by linear regression. The slope of this straight line fit is used as an index of the dissociation rate of the antagonist. The dose ratios for antagonist treated cells and for antagonist treated and washed cells at each time point are used to calculate a relative dose ratio (rel DR) which is also used as an index of antagonist duration. Antagonists with long duration of action produce rel DR values close to 1, and antagonists with short duration of action produce rel DR values that approaches the dose ratio value obtained for antagonist treatment alone.

T1 sequence (P35367 whole entry): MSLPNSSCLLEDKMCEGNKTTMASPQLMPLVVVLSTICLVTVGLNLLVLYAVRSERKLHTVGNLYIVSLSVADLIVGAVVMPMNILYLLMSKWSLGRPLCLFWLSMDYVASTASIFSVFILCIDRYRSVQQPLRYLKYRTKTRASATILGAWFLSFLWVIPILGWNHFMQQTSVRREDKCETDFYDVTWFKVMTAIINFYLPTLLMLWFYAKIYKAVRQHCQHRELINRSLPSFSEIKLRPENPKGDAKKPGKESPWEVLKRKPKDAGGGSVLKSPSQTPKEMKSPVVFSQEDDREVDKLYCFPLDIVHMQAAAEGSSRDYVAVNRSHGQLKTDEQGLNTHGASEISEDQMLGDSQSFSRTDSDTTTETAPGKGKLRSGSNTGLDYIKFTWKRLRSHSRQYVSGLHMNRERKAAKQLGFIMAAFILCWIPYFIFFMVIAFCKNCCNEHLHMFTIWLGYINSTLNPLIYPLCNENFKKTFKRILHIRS

Compound	duration of action compared with azelastine in the histamine H1 functional antagonist assay
O=C(CCN1CCC[C@@H]1Cn1nc(Cc2ccc(Cl)cc2)c2ccccc2c1=O)N1CCCCC1.O=C(O)C(F)(F)F [Example 12, 4-[(4-chlorophenyl)methyl]-2-({(2R)-1-[3-oxo-3-(1-piperidinyl)propyl]-2-pyrrolidinyl}methyl)-1(2H)-phthalazinone, trifluoroacetate]	longer duration of action than azelastine
CC(C)(C)C(=O)NCCN1CCC[C@@H]1Cn1nc(Cc2ccc(Cl)cc2)c2ccccc2c1=O.O=C(O)C(F)(F)F [Example 38, N-[2-((2R)-2-{[4-[(4-chlorophenyl)methyl]-1-oxo-2(1H)-phthalazinyl]methyl}-1-pyrrolidinyl)ethyl]-2,2-dimethylpropanamide, trifluoroacetate]	longer duration of action than azelastine
CC(C)c1noc(CCN2CCC[C@@H]2Cn2nc(Cc3ccc(Cl)cc3)c3ccccc3c2=O)n1.Cl [Example 61, 4-[(4-Chlorophenyl)methyl]-2-[((2R)-1-{2-[3-(1-methylethyl)-1,2,4-oxadiazol-5-yl]ethyl}-2-pyrrolidinyl)methyl]-1(2H)-phthalazinone, hydrochloride]	longer duration of action than azelastine
COCCN(C)C(=O)CCN1CCC[C@@H]1Cn1nc(Cc2ccc(Cl)cc2)c2ccccc2c1=O.O=C(O)C(F)(F)F [Example 14, 3-((2R)-2-{[4-[(4-chlorophenyl)methyl]-1-oxo-2(1H)-phthalazinyl]methyl}-1-pyrrolidinyl)-N-methyl-N-[2-(methyloxy)ethyl] propanamide, trifluoroacetate]	longer duration of action than azelastine
O=C(CCN1CCC[C@@H]1Cn1nc(Cc2ccc(Cl)cc2)c2ccccc2c1=O)NCC(F)F.O=CO [Example 6, formic acid-3-((2R)-2-{[4-[(4-chlorophenyl)methyl]-1-oxo-2(1H)-phthalazinyl]methyl}-1-pyrrolidinyl)-N-(2,2-difluoroethyl)propanamide (1:1)]	longer duration of action than azelastine
CCOCCNC(=O)CCN1CCCC1Cn1nc(Cc2ccc(Cl)cc2)c2ccccc2c1=O.O=C(O)C(F)(F)F [Example 22, 3-((2R)-2-{[4-[(4-chlorophenyl)methyl]-1-oxo-2(1H)-phthalazinyl]methyl}-1-pyrrolidinyl)-N-[2-(ethyloxy)ethyl] propanamide, trifluoroacetate]	longer duration of action than azelastine
CCCNC(=O)CCCN1CCC[C@@H]1Cn1nc(Cc2ccc(Cl)cc2)c2ccccc2c1=O.Cl [Example 26, 4-((2R)-2-{[4-[(4-Chlorophenyl)methyl]-1-oxo-2(1H)-phthalazinyl]methyl}-1-pyrrolidinyl)-N-propylbutanamide, hydrochloride]	longer duration of action than azelastine
COCCNC(=O)CCCN1CCC[C@@H]1Cn1nc(Cc2ccc(Cl)cc2)c2ccccc2c1=O.O=CO [Example 24, Formic acid-4-((2R)-2-{[4-[(4-chlorophenyl)methyl]-1-oxo-2(1H)-phthalazinyl]methyl}-1-pyrrolidinyl)-N-[2-(methyloxy)ethyl] butanamide (1:1)]	longer duration of action than azelastine
COCCC(=O)NCCCN1CCC[C@@H]1Cn1nc(Cc2ccc(Cl)cc2)c2ccccc2c1=O [Example 42, N-[3-((2R)-2-{[4-[(4-Chlorophenyl)methyl]-1-oxo-2(1H)-phthalazinyl]methyl}-1-pyrrolidinyl)propyl]-3-(methyloxy)propanamide, trifluoroacetate]	longer duration of action than azelastine
